The results in this text go back to patent US12501899B2, “Mite infestation treatment” (priority 2019, dated 2025).

One series deals with bees (Apis mellifera). As to conditions: for bees killed / bee mortality / bees killed: 1 μL on bee thorax; for bees killed / bee mortality: time not stated (monitored up to 24 hours); for mortality / toxicity for the bees: after 24 hours. How it is done:
(§1) The bees were then dispatched in the boxes (10 per box).
(§2) The bees were then put to sleep for a few minutes using CO2 (flow of 3 liters for 20 seconds) in order to deposit 1 μL of compound to be tested on their thorax using a pipette. It should be noted that the bees which received romifidine hydrochloride at a concentration of 10 μg/μL received 2 μL of product. The bees were unconscious for the time the compound to be tested was deposited, that is to say around three minutes, then they woke up.
(§3) After thoracic deposition of the compound to be tested, the 10 bees from the same box were transferred to a box containing the 10 Varroa mites (cf. “Preparation of Varroa mites” above). Liquid sugar was left in each of the boxes to feed the bees during the observations. The series of boxes was then placed in an oven at […] with a humidity of 50% in order to approximate hive conditions as closely as possible.
(§4) The mortality of Varroa mites and bees was then monitored 5 minutes, 2 hours, 4 hours and 24 hours after application of the compound to be tested to the bees. Dead Varroa mites correspond to Varroa mites detached from the bees. Dead bees correspond to bees which no longer move and which are often placed on their thorax.
(§5) The following compositions were applied to the thorax of the bees: • Solvent, • Amitraz at 1 μg/μL in acetone, • Clonidine hydrochloride at 100 μg/μL, 10 μg/μL, 1 μg/μL and 0.1 μg/μL in methanol, • Detomidine hydrochloride monohydrate at 1 μg/μL in methanol, • Dexmedetomidine hydrochloride at 100 μg/μL, 10 μg/μL, 1 μg/μL and 0.1 μg/μL in methanol, • Romifidine hydrochloride at 10 μg/μL and at 5 μg/μL in methanol, • Tizanidine hydrochloride at 1 μg/μL in methanol, • Medetomidine hydrochloride at 0.1 μg/μL in ethanol, • Levomedetomidine hydrochloride at 100 μg/μL, 10 μg/μL, 1 μg/μL and 0.1 μg/μL in methanol, • Octopamine at 1 μg/μL in ethanol. Results

Another series concerns Varroa destructor. How it is done:
About 300 bees (Apis mellifera) infected with Varroa destructor were taken from a hive superinfected with Varroa destructor. The bees were then placed in a device allowing to detach Varroa mites attached to the bees (device described in Community model n° 003419415-0001) filled with icing sugar. The device was stirred for 2 minutes to sample the Varroa mites attached to the bees. The icing sugar allows to interfere between the bee and the Varroa mite that was attached thereto. Varroa mites were harvested with icing sugar because they pass through the holes in the device, unlike bees. The Varroa mites were then separated from the icing sugar.
The Varroa mites thus recovered were dispatched in boxes (10 Varroa mites per box).
as §1, §2, §3, §4, §5

Structures can show the parent of a compound that is named as a salt. Where two headings read alike, the source gives them in different places.

With `Clc1cccc(Cl)c1NC1=NCCN1` [Clonidine hydrochloride, N-(2,6-dichlorophenyl)-4,5-dihydro-1H-imidazol-2-amine], the “bees killed / bee mortality” value with bees (Apis mellifera) (1 μg/μL) was “zero mortality”. Besides, the bees killed in the series on bees (Apis mellifera) (10 μg/μL) and in the series with bees (Apis mellifera) (100 μg/μL) was 10% in each case. Besides, the “kinetics of the Varroacid effect (in words)” value in the series with Varroa destructor (full efficiency after 24 hours) was “rather slow compared to the positive control”.

`Cc1cccc(Cc2cnc[nH]2)c1C` [Detomidine hydrochloride monohydrate, 4-[(2,3-dimethylphenyl)-methyl]-3H-imidazole]: the “mortality for the bees” value with bees (Apis mellifera) (1 μg/μL, after 2 hours) is listed as “without mortality”. Further, in the series with bees (Apis mellifera) (1 μg/μL), the “mortality / toxicity for the bees” value was “without mortality”. For the same compound, the Varroa mites killed with Varroa destructor (1 μg/μL, after 2 hours) is 40%. In addition, the “Varroa mites killed / Varroa mite mortality” value with Varroa destructor (1 μg/μL, after 24 hours) stood at 100%.

For `NCC(O)c1ccc(O)cc1` (stereo not drawn) [Octopamine], the “bees killed / bee mortality” value in the series on bees (Apis mellifera) (1 μg/μL) was “zero”. For the same compound, the “Varroacid effect (in words)” value with Varroa destructor (1 μg/μL in ethanol) is “No Varroacid effect”.

For the compound `Fc1cccc(Br)c1NC1=NCCN1` [Romifidine hydrochloride, N-(2-bromo-6-fluorophenyl)-4,5-dihydro-1H-imidazol-2-amine], the Bee mortality result with bees (Apis mellifera) (all doses (10 and 5 μg/μL), even after 24 hours) was “zero”. Also, the “mortality of Varroa mites” value in the series on Varroa destructor (5 μg/μL, 24 hours, compared with 10 μg/μL at 4 hours) was “same level of mortality”; in the series with Varroa destructor (2 μl of product at 10 μg/μL, after 2 hours) it was 75%; in the series on Varroa destructor (2 μl of product at 10 μg/μL, after 4 hours), 95%.

Consider `Clc1ccc2nsnc2c1NC1=NCCN1` [Tizanidine hydrochloride, 4-Chloro-N-(4,5-dihydro-1H-imidazol-2-yl)-8-thia-7,9-diazabicyclo, nona-2,4,6,9-tetraen-5-amine], for which the “mortality / toxicity for the bees” value with bees (Apis mellifera) (1 μg/μL) is on record as “without toxicity”.
